What all share (assay type): biochemical
For one experiment, the target named is T1, human LSD1(171-852) (Homo sapiens, UniProt O60341).
T1 construct: to give hLSD1(171-852) purified product; made in house; host or cells: Escherichia coli C43(DE3) pLysS
Description: Measurement of LSD1 inhibitory activity (time-resolved fluorescence, biotin-histone H3 mono methylated K4 peptide). The note with it: read-out: LSD1 IC50 value.

For another experiment, the target named is T2, MAO-A (Homo sapiens, UniProt P21397).
T2 construct: purchased Sigma-Aldrich Co. LLC
T2 sequence (P21397 1-527): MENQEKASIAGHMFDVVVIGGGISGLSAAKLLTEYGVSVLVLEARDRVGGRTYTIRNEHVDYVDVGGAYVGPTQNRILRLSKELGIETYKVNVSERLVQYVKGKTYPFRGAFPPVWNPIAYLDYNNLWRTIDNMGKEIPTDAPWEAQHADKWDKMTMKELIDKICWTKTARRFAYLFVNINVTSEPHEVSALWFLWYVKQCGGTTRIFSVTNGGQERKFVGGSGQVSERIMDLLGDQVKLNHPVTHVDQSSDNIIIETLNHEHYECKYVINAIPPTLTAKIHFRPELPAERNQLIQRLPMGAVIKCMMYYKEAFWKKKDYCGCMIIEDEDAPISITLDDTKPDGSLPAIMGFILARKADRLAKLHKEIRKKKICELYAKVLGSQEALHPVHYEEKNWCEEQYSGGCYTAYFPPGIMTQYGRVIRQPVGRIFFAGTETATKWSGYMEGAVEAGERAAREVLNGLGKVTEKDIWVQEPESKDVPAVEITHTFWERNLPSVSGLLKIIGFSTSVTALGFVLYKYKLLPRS
Description: Measurement of MAO-A inhibitory activity (MAO-Glo Assay). In a few lines: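 Luminescent MAO-Glo read-out: % inhibition computed from counts relative to enzyme-only control and enzyme-free blank. Compound and 400 ng MAO-A in HEPES pH 7.5 with 5% glycerol stood 10 min at room temperature before MAO substrate (160 μM stock) started a 60 min reaction.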

Another experiment has as its target T3, MAO-B (Homo sapiens, UniProt P27338).
T3 construct: purchased Sigma-Aldrich Co. LLC
T3 sequence (P27338 1-520): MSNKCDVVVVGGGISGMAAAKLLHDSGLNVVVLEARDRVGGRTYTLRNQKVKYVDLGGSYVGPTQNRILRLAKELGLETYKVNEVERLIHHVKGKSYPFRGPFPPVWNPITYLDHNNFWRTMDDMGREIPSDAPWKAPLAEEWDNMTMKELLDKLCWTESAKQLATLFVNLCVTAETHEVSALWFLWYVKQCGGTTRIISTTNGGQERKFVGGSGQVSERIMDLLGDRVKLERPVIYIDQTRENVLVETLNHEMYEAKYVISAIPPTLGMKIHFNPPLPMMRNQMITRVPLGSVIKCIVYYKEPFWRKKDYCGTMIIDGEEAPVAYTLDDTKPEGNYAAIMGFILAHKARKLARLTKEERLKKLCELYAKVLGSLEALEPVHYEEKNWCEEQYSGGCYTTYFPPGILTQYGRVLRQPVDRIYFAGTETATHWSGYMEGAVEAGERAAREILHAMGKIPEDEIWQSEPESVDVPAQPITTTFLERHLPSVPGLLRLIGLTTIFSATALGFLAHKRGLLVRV
Description: Measurement of MAO-B inhibitory activity (MAO-Glo Assay). In outline:
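Percent inhibition was calculated from luciferin-based luminescence, corrected with a blank lacking enzyme and a control lacking compound. The reaction ran 60 min at room temperature after adding MAO substrate (16 µM as added). This followed a 10 min compound–enzyme preincubation in HEPES pH 7.5 buffer.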

Molecules are shown by their SMILES. Structures can show the parent of a compound that is named as a salt. Where only a bound is given, the exact number is not on record here.

Broadly, the IC50 is the point on the concentration scale where inhibition reaches its midpoint.

Regarding `O=C(Nc1ccc([C@@H]2C[C@H]2NCC2CC2)cc1)c1ccc(OCc2ccccc2)cc1` (relative stereo) [Example 71, 4-(benzyloxy)-N-(4-{trans-2-[(cyclopropylmethyl)amino]cyclopropyl}phenyl)benzamide hydrochloride], the IC50 at human LSD1(171-852) is under 0.1 µM; against MAO-A it was over 10 µM; on MAO-B, over 10 µM.

As for `O=C(Nc1ccc([C@@H]2C[C@H]2NCc2cscn2)cc1)c1cccc(C(F)(F)F)c1` (relative stereo) [Example 72, N-(4-{trans-2-[(1,3-thiazol-4-ylmethyl)amino]cyclopropyl}phenyl)-3-(trifluoromethyl)benzamide dihydrochloride], the IC50 on human LSD1(171-852) was under 0.1 µM; against MAO-A, 3.1 µM; on MAO-B it was over 10 µM.

As for `O=C(Nc1ccc([C@@H]2C[C@H]2NC2CCN(Cc3ccccc3)CC2)cc1)c1cccc(C(F)(F)F)c1` (relative stereo) [Example 74, N-(4-{trans-2-[(1-benzylpiperidin-4-yl)amino]cyclopropyl}phenyl)-3-(trifluoromethyl)benzamide dihydrochloride], the results for the IC50 at human LSD1(171-852), on MAO-A and against MAO-B were under 0.1 µM, over 10 µM and over 10 µM, respectively.

As to `O=C(Nc1ccc([C@@H]2C[C@H]2NC2CCN(c3ccccc3)CC2)cc1)c1cccc(C(F)(F)F)c1` (relative stereo) [Example 75, N-(4-{trans-2-[(1-phenylpiperidin-4-yl)amino]cyclopropyl}phenyl)-3-(trifluoromethyl)benzamide dihydrochloride], the IC50 at human LSD1(171-852) is under 0.1 µM; against MAO-A it was over 10 µM; at MAO-B, over 10 µM.

`O=C(Nc1ccc([C@@H]2C[C@H]2NC2CCNC(c3ccccc3)C2)cc1)c1cccc(C(F)(F)F)c1` (relative stereo) [Example 77, N-(4-{trans-2-[(2-phenylpiperidin-4-yl)amino]cyclopropyl}phenyl)-3-(trifluoromethyl)benzamide dihydrochloride]: the IC50 at human LSD1(171-852) was under 0.1 µM; at MAO-A, 9.9 µM; against MAO-B, over 10 µM.

As for `O=C(Nc1ccc([C@@H]2C[C@H]2NCC2CC2)cc1)c1ccc(-c2ccccc2Cl)cc1` (relative stereo) [Example 78, 2′-chloro-N-(4-{trans-2-[(cyclopropylmethyl)amino]cyclopropyl}phenyl)biphenyl-4-carboxamide hydrochloride], the figures for the IC50 at human LSD1(171-852), at MAO-A and on MAO-B were under 0.1 µM, over 10 µM and over 10 µM, respectively.

As to `O=C(Nc1ccc(C(=O)Nc2ccc([C@@H]3C[C@H]3NCC3CC3)cc2)cc1)c1ccccc1` (relative stereo) [Example 80, N-(4-{trans-2-[(cyclopropylmethyl)amino]cyclopropyl}phenyl)-4-[(phenylcarbonyl)amino]benzamide hydrochloride], the IC50 at human LSD1(171-852) was under 0.1 µM; against MAO-A, over 10 µM; on MAO-B, over 10 µM.

With `Cc1cc(NC(=O)c2ccccc2)ccc1[C@@H]1C[C@H]1NCC1CC1` (relative stereo) [Example 82, N-(4-{trans-2-[(cyclopropylmethyl)amino]cyclopropyl}-3-methylphenyl)benzamide hydrochloride], the IC50 was under 0.1 µM on human LSD1(171-852), over 10 µM against MAO-A and over 10 µM on MAO-B.

Take `CN(C)c1cccc(C(=O)Nc2ccc([C@@H]3C[C@H]3NCC3CC3)cc2)c1` (relative stereo) [Example 83, N-(4-{trans-2-[(cyclopropylmethyl)amino]cyclopropyl}phenyl)-3-(dimethylamino)benzamide bis(trifluoroacetate)]: the IC50 was under 0.1 µM at human LSD1(171-852), over 10 µM against MAO-A and over 10 µM against MAO-B.

Regarding `CN(C)c1ccc(C(=O)Nc2ccc([C@@H]3C[C@H]3NCC3CC3)cc2)cc1` (relative stereo) [Example 84, N-(4-{trans-2-[(cyclopropylmethyl)amino]cyclopropyl}-phenyl)-4-(dimethylamino)-benzamide], the IC50 on human LSD1(171-852) was under 0.1 µM; at MAO-A it was over 10 µM; against MAO-B, over 10 µM.

Turning to `O=C(Nc1ccc([C@@H]2C[C@H]2NCC2CC2)cc1)c1ccc2c(c1)CCCC2` (relative stereo) [Example 85, N-(4-{trans-2-[(cyclopropylmethyl)amino]cyclopropyl}-phenyl)-5,6,7,8-tetrahydronaphtha-lene-2-carboxamide], the values for the IC50 on human LSD1(171-852), against MAO-A and at MAO-B were under 0.1 µM, 9.1 µM and 4.9 µM, respectively.

As for `CC1=NN(c2ccc(C(=O)Nc3ccc([C@@H]4C[C@H]4NCC4CC4)cc3)cc2)C(=O)C1` (relative stereo) [Example 86, N-(4-{trans-2-[(cyclopropylmethyl)amino]cyclopropyl}-phenyl)-4-(3-methyl-5-oxo-4,5-dihydro-1H-pyrazol-1-yl)benzamide], the half-maximal inhibitory concentration (IC50) on human LSD1(171-852) was 1 µM; against MAO-A, over 10 µM; at MAO-B, over 10 µM.

Take `CS(=O)(=O)c1ccc(C(=O)Nc2ccc([C@@H]3C[C@H]3NCC3CC3)cc2)cc1` (relative stereo) [Example 87, N-(4-{trans-2-[(cyclopropylmethyl)amino]cyclopropyl}-phenyl)-4-(methylsulfonyl)-benzamide]: the concentration for half-maximal inhibition (IC50) at human LSD1(171-852) was under 0.1 µM; against MAO-A it was over 10 µM; at MAO-B, over 10 µM.

For `NS(=O)(=O)c1ccc(C(=O)Nc2ccc([C@@H]3C[C@H]3NCC3CC3)cc2)cc1` (relative stereo) [Example 88, N-(4-{trans-2-[(cyclopropylmethyl)amino]cyclopropyl}-phenyl)-4-sulfamoylbenzamide], the values for the IC50 on human LSD1(171-852), on MAO-A and against MAO-B were under 0.1 µM, over 10 µM and over 10 µM, respectively.

For the compound `O=C(Nc1ccc([C@@H]2C[C@H]2NCC2CC2)cc1)c1ccc(C2CCCCC2)cc1` (relative stereo) [Example 89, 4-cyclohexyl-N-(4-{trans-2-[(cyclopropylmethyl)amino]cyclopropyl}-phenyl)benzamide], the IC50 is 0.1 µM on human LSD1(171-852), over 10 µM on MAO-A and over 10 µM against MAO-B.

For `O=C(Nc1ccc([C@@H]2C[C@H]2NCC2CC2)cc1)c1ccc2ncsc2c1` (relative stereo) [Example 90, N-(4-{trans-2-[(cyclopropylmethyl)amino]cyclopropyl}-phenyl)-1,3-benzothiazole-6-carboxamide], the values for the IC50 on human LSD1(171-852), at MAO-A and at MAO-B were under 0.1 µM, over 10 µM and over 10 µM, respectively.

On to `CS(=O)(=O)c1cccc(C(=O)Nc2ccc([C@@H]3C[C@H]3NCC3CC3)cc2)c1` (relative stereo) [Example 91, N-(4-{trans-2-[(cyclopropylmethyl)amino]cyclopropyl}-phenyl)-3-(methylsulfonyl)-benzamide], for which the IC50 at human LSD1(171-852) is under 0.1 µM; at MAO-A it was over 10 µM; against MAO-B, over 10 µM.

Consider `O=C(Nc1ccc([C@@H]2C[C@H]2NCC2CC2)cc1)c1ccc(-n2ccnc2)cc1` (relative stereo) [Example 92, N-(4-{trans-2-[(cyclopropylmethyl)-amino]cyclopropyl}-phenyl)-4-(1H-imidazol-1-yl)benzamide], for which the IC50 is under 0.1 µM at human LSD1(171-852), 7.9 µM at MAO-A and over 10 µM against MAO-B.

Turning to `O=C(Nc1ccc([C@@H]2C[C@H]2NCC2CC2)cc1)c1cc(-c2ccccc2)on1` (relative stereo) [Example 93, N-(4-{trans-2-[(cyclopropylmethyl)-amino]cyclopropyl}-phenyl)-5-phenyl-1,2-oxazole-3-carboxamide], the IC50 on human LSD1(171-852) is under 0.1 µM; against MAO-A it was over 10 µM; at MAO-B, over 10 µM.

`O=C(Nc1ccc([C@@H]2C[C@H]2NCC2CC2)cc1)c1ccc(-n2cccn2)cc1` (relative stereo) [Example 94, N-(4-{trans-2-[(cyclopropylmethyl)-amino]cyclopropyl}-phenyl)-4-(1H-pyrazol-1-yl)benzamide]: the IC50 at human LSD1(171-852) is under 0.1 µM; on MAO-A it was over 10 µM; against MAO-B, over 10 µM.

For the origin of these results see US9682925B2, “Cyclopropaneamine compound” (TAKEDA PHARMACEUTICAL COMPANY LIMITED, priority 2011, dated 2017).
